Experimental data taken from ChEMBL document CHEMBL5537139, “Promises of anionic calix[n]arenes in life science: State of the art in 2023” (Eur J Med Chem, 2024).

Legend:
[1] = Binding affinity to Methyl-lysine (unknown origin) assessed as dissociation constant; set-up: species or system Homo sapiens
[2] = Binding affinity to trimethyl-lysine (unknown origin) assessed as dissociation constant; set-up: species or system Homo sapiens
[3] = Inhibition of influenza A virus A/H3N2 neuraminidase
Caco-2 = experiment: Anticancer activity against human Caco-2 cells assessed as inhibition of cell viability; assay type: functional, cell-based
HT-29 = experiment: Anticancer activity against human HT-29 cells assessed as reduction in cell viability incubated for 24 hrs by MTT assay; assay type: functional, cell-based; settings: HT-29, 24 h
bovine serum albumin = bovine serum albumin (Bos taurus, UniProt P02769); experiment: Inhibition of bovine serum albumin at 1 uM by SPR analysis relative to control; settings: cattle
bovine serum albumin, sequence (P02769 whole entry): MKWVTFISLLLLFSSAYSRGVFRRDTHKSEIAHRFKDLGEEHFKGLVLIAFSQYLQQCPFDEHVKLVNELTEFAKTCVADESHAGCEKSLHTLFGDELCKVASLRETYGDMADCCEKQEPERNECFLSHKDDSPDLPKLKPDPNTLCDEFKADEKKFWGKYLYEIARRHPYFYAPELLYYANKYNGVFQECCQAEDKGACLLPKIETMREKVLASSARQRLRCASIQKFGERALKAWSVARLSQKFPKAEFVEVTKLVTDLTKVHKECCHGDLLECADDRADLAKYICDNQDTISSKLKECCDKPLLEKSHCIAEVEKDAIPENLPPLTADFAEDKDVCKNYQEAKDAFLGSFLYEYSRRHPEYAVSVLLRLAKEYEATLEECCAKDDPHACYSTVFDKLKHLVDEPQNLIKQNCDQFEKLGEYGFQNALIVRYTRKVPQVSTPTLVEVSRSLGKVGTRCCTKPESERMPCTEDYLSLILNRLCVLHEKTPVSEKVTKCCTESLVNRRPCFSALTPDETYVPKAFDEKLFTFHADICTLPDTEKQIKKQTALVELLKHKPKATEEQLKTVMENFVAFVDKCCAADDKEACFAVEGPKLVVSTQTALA

In the case of O=S(=O)(O)c1cc2c(O)c(c1)Cc1cc(S(=O)(=O)O)cc(c1O)Cc1cc(S(=O)(=O)O)cc(c1O)Cc1cc(S(=O)(=O)O)cc(c1O)C2, the Kd [1] is reported as 15.6 µM and the Kd [2] is reported as 27 µM.

For O=S(=O)(O)c1cc2c(O)c(c1)Cc1cc(S(=O)(=O)O)cc(c1O)Cc1cc(S(=O)(=O)O)cc(c1O)Cc1cc(S(=O)(=O)O)cc(c1O)Cc1cc(S(=O)(=O)O)cc(c1O)Cc1cc(S(=O)(=O)O)cc(c1O)Cc1cc(S(=O)(=O)O)cc(c1O)Cc1cc(S(=O)(=O)O)cc(c1O)C2, the IC50 [3] was 6.4 µM.

CCCCCCOc1c2cc(P(=O)(O)O)cc1Cc1cc(P(=O)(O)O)cc(c1OCCCCCC)Cc1cc(P(=O)(O)O)cc(c1OCCCCCC)Cc1cc(P(=O)(O)O)cc(c1OCCCCCC)C2 showed an IC50 (Caco-2) of 3.88 µM and an IC50 (HT-29) of 8.79 µM.

CC[C@@]1(O)C(=O)OCc2c1cc1n(c2=O)Cc2cc3ccccc3nc2-1 [CAMPTOTHECIN] gave an inhibition at 1 µM (bovine serum albumin) of 98%.

With COc1cccc2c1C(=O)c1c(O)c3c(c(O)c1C2=O)C[C@@](O)(C(=O)CO)C[C@@H]3O[C@H]1C[C@H](N)[C@H](O)[C@H](C)O1 [DOXORUBICIN] the inhibition at 1 µM (bovine serum albumin) was 87%.

CO[C@@]12[C@H](COC(N)=O)C3=C(C(=O)C(C)=C(N)C3=O)N1C[C@@H]1N[C@@H]12 [MITOMYCIN] showed an inhibition at 1 µM (bovine serum albumin) of 94%.
